Laboratory results as given in patent US8946142B2, “Beta-arrestin effectors and compositions and methods of use thereof” (Trevena, Inc., priority 2012, dated 2015).
Like-named read-outs stand apart in the source and are kept apart here. Where a SMILES comes first, the peptide text is derived from it. Bridges are numbered along the chain shown (N, C = ends). [ ]: non-standard residue; d: D form. The star is where a group is joined. Val(3-OH) = CC(C)(O)[C@H](N)C(=O)O; Tle = CC(C)(C)[C@H](N)C(=O)O; Ac6c = NC1(C(=O)O)CCCCC1; NHCH2tBu = CC(C)(C)CN*; Aib = CC(C)(N)C(=O)O; Sar = CNCC(=O)O

Legend:
human AT1R = target: T1, human AT1R (Homo sapiens, UniProt P30556); test: beta-arrestin2 recruitment assay (PathHunter), human AT1R; type: cell-based; settings: for Emax: 1 h, read-out: Span (relative to hAngII)
T1 sequence (P30556 1-359): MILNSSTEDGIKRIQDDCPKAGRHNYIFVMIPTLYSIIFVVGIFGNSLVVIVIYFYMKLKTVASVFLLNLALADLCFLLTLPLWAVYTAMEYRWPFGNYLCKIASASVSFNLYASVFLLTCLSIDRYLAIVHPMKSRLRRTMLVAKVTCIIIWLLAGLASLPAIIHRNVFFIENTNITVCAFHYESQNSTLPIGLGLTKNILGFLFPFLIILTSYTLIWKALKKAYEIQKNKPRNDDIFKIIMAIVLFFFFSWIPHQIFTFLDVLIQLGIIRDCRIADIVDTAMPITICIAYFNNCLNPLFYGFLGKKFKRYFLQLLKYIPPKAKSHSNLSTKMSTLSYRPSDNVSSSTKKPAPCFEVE
Experimental: (§1) The proximal event in β-arrestin function mediated by GPCRs is recruitment to receptors following ligand binding and receptor phosphorylation by GRK's. Thus, the measure of β-arrestin recruitment was used to determine ligand efficacy for β-arrestin function.
(§2) B-arrestin-2 recruitment to the human and rat angiotensin 2 type 1 receptor (human AT1R and rat AT1aR, respectively) was measured with the PathHunter™ μl-arrestin assay (DiscoveRx Corporation, Fremont Calif.). Cells, plasmid(s), and detection reagent(s) were purchased from DiscoveRx, and assays were performed per manufacturer's instructions. Human AT1R and rat AT1aR were cloned into the pCMV-ProLink vector, verified by sequencing, and transfected into PathHunter β-arrestin HEK293 cells. Stably transfected clonal cell lines were selected with Hygromycin and G418. These clonal cell lines were used for all experiments.
(§3) For assays, 4,000-8,000 cells were seeded per well in 384-well microplates “HiBase” small-volume plate in volumes of 20 uL and grown overnight in the incubator (37° C., 5% CO2, saturated humidity). Peptides were dissolved in DMSO to a concentration of 10 mM. Peptides were then further diluted in assay buffer (Hank's balanced salt solution with 20 mM HEPES) to add peptide to the cells to reach final concentrations ranging from 100 μM to 1 pM. Cells were then incubated for 60 minutes at 37° C. in 5% CO2, followed by addition of 2 μL of PathHunter Detection Reagent to each well. The microplates were then incubated at room temperature for 60 minutes, and then luminescence was measured using a PHERAstar Plus microplate reader from BMG Labtech. B-arrestin-2 recruitment to receptors was measured as relative luminescence intensity expressed in arbitrary units.

rat AT1aR = target: T2, rat AT1aR (Rattus norvegicus, UniProt P25095); test: beta-arrestin2 recruitment assay (PathHunter), rat AT1aR; type: cell-based; settings: for Emax: 1 h, read-out: Span (relative to hAngII)
T2 sequence (P25095 1-359): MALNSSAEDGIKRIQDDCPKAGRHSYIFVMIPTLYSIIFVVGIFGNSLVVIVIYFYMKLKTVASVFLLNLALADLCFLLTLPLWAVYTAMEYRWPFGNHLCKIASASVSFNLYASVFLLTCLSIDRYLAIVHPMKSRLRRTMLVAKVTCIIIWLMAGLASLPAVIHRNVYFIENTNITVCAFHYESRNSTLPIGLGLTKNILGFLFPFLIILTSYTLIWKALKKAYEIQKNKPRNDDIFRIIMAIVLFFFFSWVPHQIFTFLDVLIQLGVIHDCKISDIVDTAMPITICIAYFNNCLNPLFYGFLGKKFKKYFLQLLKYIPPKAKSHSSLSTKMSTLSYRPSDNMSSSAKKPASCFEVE
Experimental: as §1, §2, §3

Compound | Emax (human AT1R) [%] | EC50 (human AT1R; read-out: EC50) [nM] | EC50 (human AT1R; read-out: pEC50 (converted)) [nM] | Emax (rat AT1aR) [%] | EC50 (rat AT1aR; read-out: EC50) [nM] | EC50 (rat AT1aR; read-out: pEC50 (converted)) [nM]
CNCC(=O)N[C@@H](CCCNC(=N)N)C(=O)N[C@H](C(=O)N[C@@H](Cc1ccc(O)cc1)C(=O)N[C@H](C(=O)N[C@@H](Cc1c[nH]cn1)C(=O)N1CCC[C@H]1C(=O)N[C@H](C(=O)O)C(C)C)C(C)(C)C)C(C)C [SEQ ID NO: 29, Sar-Arg-Val-Tyr-AA02-His-Pro-Val] (H-[Sar]RVY[Tle]HPV-OH) | < 101 | > 3.2 | > 3.16 | < 105 | > 3.2 | > 3.16
CNCC(=O)N[C@@H](CCCNC(=N)N)C(=O)N[C@H](C(=O)N[C@@H](Cc1ccc(O)cc1)C(=O)NC1(C(=O)N[C@@H](Cc2c[nH]cn2)C(=O)N2CCC[C@H]2C(=O)N[C@@H](CC(N)=O)C(=O)O)CCCCC1)C(C)C [SEQ ID NO: 36, Sar-Arg-Val-Tyr-cyHex-His-Pro-Asn] (H-[Sar]RVY[Ac6c]HPN-OH) | < 101 | > 3.2 | > 3.16 | < 105 | > 3.2 | > 3.16
CNCC(=O)N[C@@H](CCCNC(=N)N)C(=O)N[C@H](C(=O)N[C@@H](Cc1ccc(O)cc1)C(=O)NC1(C(=O)N[C@@H](Cc2c[nH]cn2)C(=O)N2CCC[C@H]2C(=O)NC(C)(C)C(=O)O)CCCCC1)C(C)C [SEQ ID NO: 35, Sar-Arg-Val-Tyr-cyHex-His-Pro-AA01] (H-[Sar]RVY[Ac6c]HP[Aib]-OH) | < 101 | > 3.2 | > 3.16 | < 105 | > 3.2 | > 3.16
CNCC(=O)N[C@@H](CCCNC(=N)N)C(=O)N[C@H](C(=O)N[C@@H](Cc1ccc(O)cc1)C(=O)NC1(C(=O)N[C@@H](Cc2c[nH]cn2)C(=O)N2CCC[C@H]2C(=O)NCC(C)(C)C)CCCCC1)C(C)C [SEQ ID NO: 47, Sar-Arg-Val-Tyr-cyHex-His-Pro-NH-neopentyl] (H-[Sar]RVY[Ac6c]HP-NHCH2tBu) | < 101 | > 3.2 | > 3.16 | – | – | –
CCNC(=O)[C@@H]1CCCN1C(=O)[C@H](Cc1c[nH]cn1)NC(=O)C1(NC(=O)[C@H](Cc2ccc(O)cc2)NC(=O)[C@@H](NC(=O)[C@H](CCCNC(=N)N)NC(=O)CNC)C(C)C)CCCCC1 [SEQ ID NO: 48, Sar-Arg-Val-Tyr-cyHex-His-Pro-NH-ethyl] (H-[Sar]RVY[Ac6c]HP-NHEt) | < 101 | > 3.2 | > 3.16 | < 105 | > 3.2 | > 3.16
CNCC(=O)N[C@@H](CCCNC(=N)N)C(=O)N[C@H](C(=O)N[C@@H](Cc1ccc(O)cc1)C(=O)NC1(C(=O)N[C@@H](Cc2c[nH]cn2)C(=O)N2CCC[C@H]2C(=O)N[C@@H](CCC(=O)O)C(=O)O)CCCCC1)C(C)C [SEQ ID NO: 43, Sar-Arg-Val-Tyr-cyHex-His-Pro-Glu] (H-[Sar]RVY[Ac6c]HPE-OH) | < 101 | > 3.2 | > 3.16 | < 105 | > 3.2 | > 3.16
CC[C@H](C)[C@@H]1NC(=O)[C@H](NC(=O)[C@@H](NC(=O)[C@H](CCCNC(=N)N)NC(=O)CNC)C(C)C)CSSC[C@@H](C(=O)N[C@H](C)C(=O)O)NC(=O)[C@H](Cc2c[nH]cn2)NC1=O [SEQ ID NO: 52, Sar-Arg-Val-D-Cys-Ile-His-Cys-D-Ala] (H-[Sar]RV[dC]IHC[dA]-OH; disulfide 4-7; N-terminus and C-terminus assumed) | < 101 | – | – | < 105 | – | –
CNCC(=O)N[C@@H](CCCNC(=N)N)C(=O)N[C@H](C(=O)N[C@@H](Cc1ccc(O)cc1)C(=O)NC1(C(=O)N[C@@H](Cc2c[nH]cn2)C(=O)N2CCC[C@H]2C(=O)N[C@@H](CCCCN)C(=O)O)CCCCC1)C(C)C [SEQ ID NO: 50, Sar-Arg-Val-Tyr-cyHex-His-Pro-Lys] (H-[Sar]RVY[Ac6c]HPK-OH) | < 101 | > 3.2 | > 3.16 | < 105 | > 3.2 | > 3.16
CNCC(=O)N[C@@H](CCCNC(=N)N)C(=O)N[C@H](C(=O)N[C@@H](Cc1ccc(O)cc1)C(=O)NC1(C(=O)N[C@@H](Cc2c[nH]cn2)C(=O)N2CCC[C@H]2C(=O)NC)CCCCC1)C(C)C [SEQ ID NO: 49, Sar-Arg-Val-Tyr-cyHex-His-Pro-NH-methyl] (H-[Sar]RVY[Ac6c]HP-NHMe) | < 101 | > 3.2 | > 3.16 | < 105 | > 3.2 | > 3.16
CNCC(=O)N[C@@H](CCCNC(=N)N)C(=O)N[C@H](C(=O)N[C@@H](Cc1ccc(O)cc1)C(=O)NC1(C(=O)N[C@@H](Cc2c[nH]cn2)C(=O)N2CCC[C@H]2C(=O)NCC(=O)O)CCCCC1)C(C)C [SEQ ID NO: 32, Sar-Arg-Val-Tyr-cyHex-His-Pro-Gly] (H-[Sar]RVY[Ac6c]HPG-OH) | < 101 | > 3.2 | > 3.16 | < 105 | > 3.2 | > 3.16
CNCC(=O)N[C@@H](CCCNC(=N)N)C(=O)N[C@H](C(=O)N[C@@H](Cc1ccc(O)cc1)C(=O)NC1(C(=O)N[C@@H](Cc2c[nH]cn2)C(=O)N2CCC[C@H]2C(=O)O)CCCCC1)C(C)C [SEQ ID NO: 41, Sar-Arg-Val-Tyr-cyHex-His-Pro] (H-[Sar]RVY[Ac6c]HP-OH) | < 101 | > 3.2 | > 3.16 | < 105 | > 3.2 | > 3.16
CNCC(=O)N[C@@H](CCCNC(=N)N)C(=O)N[C@H](C(=O)N[C@@H](Cc1ccc(O)cc1)C(=O)N[C@H](C(=O)N[C@@H](Cc1c[nH]cn1)C(=O)N1CCC[C@H]1C(=O)N[C@H](C(=O)O)[C@@H](C)O)C(C)(C)C)C(C)C [SEQ ID NO: 30, Sar-Arg-Val-Tyr-AA02-His-Pro-Thr] (H-[Sar]RVY[Tle]HPT-OH) | < 101 | > 3.2 | > 3.16 | < 105 | > 3.2 | > 3.16
CNCC(=O)N[C@@H](CCCNC(=N)N)C(=O)N[C@H](C(=O)N[C@@H](Cc1ccc(O)cc1)C(=O)NC1(C(=O)N[C@@H](Cc2c[nH]cn2)C(=O)N2CCC[C@H]2C(=O)N[C@H](C(=O)O)C(C)(C)O)CCCCC1)C(C)C [SEQ ID NO: 31, Sar-Arg-Val-Tyr-cyHex-His-Pro-AA03] (H-[Sar]RVY[Ac6c]HP[Val(3-OH)]-OH) | < 101 | > 3.2 | > 3.16 | < 105 | > 3.2 | > 3.16
CNCC(=O)N[C@@H](CCCNC(=N)N)C(=O)N[C@H](C(=O)N[C@@H](Cc1ccc(O)cc1)C(=O)NC(C)(C)C(=O)N[C@@H](Cc1c[nH]cn1)C(=O)N1CCC[C@H]1C(=O)N[C@H](C(=O)O)[C@@H](C)O)C(C)C [SEQ ID NO: 40, Sar-Arg-Val-Tyr-AA01-His-Pro-Thr] (H-[Sar]RVY[Aib]HPT-OH) | < 101 | > 3.2 | > 3.16 | < 105 | > 3.2 | > 3.16
CNCC(=O)N[C@@H](CCCNC(=N)N)C(=O)N[C@H](C(=O)N[C@@H](Cc1ccc(O)cc1)C(=O)NC1(C(=O)N[C@@H](Cc2c[nH]cn2)C(=O)N2CCC[C@H]2C(=O)N[C@@H](CS)C(=O)O)CCCCC1)C(C)C [SEQ ID NO: 34, Sar-Arg-Val-Tyr-cyHex-His-Pro-Cys] (H-[Sar]RVY[Ac6c]HPC-OH) | < 101 | > 3.2 | > 3.16 | < 105 | > 3.2 | > 3.16
